From patent US12655116B2, “Substituted isophthalic acid diamides” (Bayer Aktiengesellschaft, priority 2020, dated 2026)

Tests used:
ABUTH [1] = experiment: Pre-emergence herbicidal action against ABUTH; type: in vivo, Abutilon theophrasti; details: Abutilon theophrasti, 504 h
In short: (§1)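 Herbicidal effect was assessed 3 weeks after treatment by visual comparison with untreated controls, 100% denoting dead plants. Aqueous WP or EC preparations had been applied at 600 to 800 l/ha with 0.2% wetting agent to the soil covering freshly sown seeds.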

ALOMY [2] = experiment: Pre-emergence herbicidal action against ALOMY; type: in vivo, Alopecurus myosuroides; details: Alopecurus myosuroides, 504 h, pre-emergence
In short: as §1

AMARE [3] = experiment: Pre-emergence herbicidal action against AMARE; type: in vivo, Amaranthus retroflexus; details: Amaranthus retroflexus, 504 h, scored visually after 3 weeks vs untreated controls, 100% = plants have died, 0% = like control plants
In short: as §1

AVEFA [4] = experiment: Pre-emergence herbicidal action against AVEFA; type: in vivo, Avena fatua; details: Avena fatua, 504 h, pre-emergence
In short: as §1

ECHCG [5] = experiment: Pre-emergence herbicidal action against ECHCG; type: in vivo, Echinochloa crus-galli; details: Echinochloa crus-galli, 504 h, 80 g/ha
In short: as §1

LOLRI [6] = experiment: Pre-emergence herbicidal action against LOLRI; type: in vivo, Lolium rigidum; details: Lolium rigidum, 504 h, 80 g/ha
In short: as §1

MATIN [7] = experiment: Pre-emergence herbicidal action against MATIN; type: in vivo, Matricaria inodora; details: Tripleurospermum inodorum, 504 h
In short: as §1

PHBPU [8] = experiment: Pre-emergence herbicidal action against PHBPU; type: in vivo, Pharbitis purpurea; details: Ipomoea purpurea, 504 h, dosage 80 g/ha
In short: as §1

POLCO = experiment: Pre-emergence herbicidal action against POLCO; type: in vivo, Polygonum convolvulus; details: Fallopia convolvulus, 504 h, dosage 80 g/ha
In short: as §1

SETVI [9] = experiment: Pre-emergence herbicidal action against SETVI; type: in vivo, Setaria viridis; details: Setaria viridis, 504 h
In short: as §1

VERPE [10] = experiment: Pre-emergence herbicidal action against VERPE; type: in vivo, Veronica persica; details: Veronica persica, 504 h
In short: as §1

VIOTR = experiment: Pre-emergence herbicidal action against VIOTR; type: in vivo, Viola tricolor; details: Viola tricolor, 504 h
In short: as §1

DIGSA [11] = experiment: Pre-emergence herbicidal action against DIGSA; type: in vivo, Digitaria sanguinalis; details: Digitaria sanguinalis, 504 h
In short: as §1

ABUTH [12] = experiment: Post-emergence herbicidal action against ABUTH; type: in vivo, Abutilon theophrasti; details: Abutilon theophrasti, 504 h, visual assessment about 3 weeks after treatment vs untreated controls
In short: (§2)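 Post-emergence greenhouse test; one-leaf stage, 2–3 wk post-sowing, sandy loam. Foliar spray of WP/EC in water, 600–800 l/ha, +0.2% wetting agent. Visual % action at ~3 wk vs untreated (100% = plants dead).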

ALOMY [13] = experiment: Post-emergence herbicidal action against ALOMY; type: in vivo, Alopecurus myosuroides; details: Alopecurus myosuroides, 504 h, visual assessment about 3 weeks after treatment vs untreated controls
In short: as §2

AMARE [14] = experiment: Post-emergence herbicidal action against AMARE; type: in vivo, Amaranthus retroflexus; details: Amaranthus retroflexus, 504 h, 20 g/ha, visual assessment about 3 weeks after treatment, 100% = plants have died, 0% = like control plants
In short: as §2

AVEFA [15] = experiment: Post-emergence herbicidal action against AVEFA; type: in vivo, Avena fatua; details: Avena fatua, 504 h, visual assessment about 3 weeks after treatment, 100% = plants have died, 0% = like control plants
In short: as §2

ECHCG [16] = experiment: Post-emergence herbicidal action against ECHCG; type: in vivo, Echinochloa crus-galli; details: Echinochloa crus-galli, 504 h
In short: as §2

LOLRI [17] = experiment: Post-emergence herbicidal action against LOLRI; type: in vivo, Lolium rigidum; details: Lolium rigidum, 504 h, dosage 20 g/ha
In short: as §2

MATIN [18] = experiment: Post-emergence herbicidal action against MATIN; type: in vivo, Matricaria inodora; details: Tripleurospermum inodorum, 504 h
In short: as §2

PHBPU [19] = experiment: Post-emergence herbicidal action against PHBPU; type: in vivo, Pharbitis purpurea; details: Ipomoea purpurea, 504 h
In short: as §2

SETVI [20] = experiment: Post-emergence herbicidal action against SETVI; type: in vivo, Setaria viridis; details: Setaria viridis, 504 h
In short: as §2

VERPE [21] = experiment: Post-emergence herbicidal action against VERPE; type: in vivo, Veronica persica; details: Veronica persica, 504 h
In short: as §2

DIGSA [22] = experiment: Post-emergence herbicidal action against DIGSA; type: in vivo, Digitaria sanguinalis; details: Digitaria sanguinalis, 504 h, 20 g/ha
In short: as §2

[23] = 80 g/ha, scored visually after 3 weeks vs untreated controls (100% = plants have died, 0% = like control plants)
[24] = 20 g/ha, scored visually after 3 weeks, 100% = plants have died, 0% = like control plants

Work on `CCCNC(=O)c1c(C(F)(F)F)ccc(C(=O)Nc2nnnn2CC)c1C` [Example 2-32] yielded a pest or weed control at 80 g/ha (ABUTH [1]; [23]) of 100%, a pest or weed control at 20 g/ha (ABUTH [1]; dosage 20 g/ha, scored visually after 3 weeks vs untreated controls, 100% = plants have died, 0% = like control plants, read-out: Pre-emergence action against ABUTH (herbicidal activity in percent)) of 100% and a pest or weed control at 80 g/ha (ALOMY [2]; [23]) of 100%. It also gave a pest or weed control at 20 g/ha (ALOMY [2]; [24]) of 90%, a pest or weed control at 20 g/ha (AMARE [3]; 20 g/ha) of 100% and a pest or weed control at 80 g/ha (AMARE [3]; 80 g/ha) of 100%. It also gave a pest or weed control at 80 g/ha (AVEFA [4]; 80 g/ha) of 90%, a pest or weed control at 20 g/ha (AVEFA [4]; [24]) of 90% and a pest or weed control at 80 g/ha (ECHCG [5]) of 100%. For the same compound, the pest or weed control at 80 g/ha (LOLRI [6]) was 90%, the pest or weed control at 20 g/ha (MATIN [7]; dosage 20 g/ha) was 100% and the pest or weed control at 80 g/ha (MATIN [7]; dosage 80 g/ha) was 100%. It also gave a pest or weed control at 80 g/ha (PHBPU [8]) of 90%, a pest or weed control at 80 g/ha (POLCO) of 90% and a pest or weed control at 20 g/ha (SETVI [9]; dosage 20 g/ha) of 100%. For the same compound, the pest or weed control at 80 g/ha (SETVI [9]; dosage 80 g/ha) was 100%, the pest or weed control at 20 g/ha (VERPE [10]; dosage 20 g/ha) was 90% and the pest or weed control at 80 g/ha (VERPE [10]; dosage 80 g/ha) was 100%. For the same compound, the pest or weed control at 20 g/ha (VIOTR; dosage 20 g/ha) was 100%, the pest or weed control at 80 g/ha (VIOTR; dosage 80 g/ha) was 100% and the pest or weed control at 20 g/ha (DIGSA [11]; dosage 20 g/ha) was 100%. The pest or weed control at 80 g/ha (DIGSA [11]; dosage 80 g/ha) was 100%, the pest or weed control at 5 g/ha (ABUTH [12]; dosage 5 g/ha) was 90% and the pest or weed control at 20 g/ha (ABUTH [12]; dosage 20 g/ha) was 90%. It also gave a pest or weed control at 5 g/ha (ALOMY [13]; dosage 5 g/ha) of 90%, a pest or weed control at 20 g/ha (ALOMY [13]; dosage 20 g/ha) of 100% and a pest or weed control at 20 g/ha (AMARE [14]) of 100%. The pest or weed control at 5 g/ha (AVEFA [15]; 5 g/ha) was 90%, the pest or weed control at 20 g/ha (AVEFA [15]; 20 g/ha) was 100% and the pest or weed control at 5 g/ha (ECHCG [16]; dosage 5 g/ha) was 80%. The pest or weed control at 20 g/ha (ECHCG [16]; dosage 20 g/ha) was 90%, the pest or weed control at 20 g/ha (LOLRI [17]) was 80% and the pest or weed control at 5 g/ha (MATIN [18]; dosage 5 g/ha) was 90%. The pest or weed control at 20 g/ha (MATIN [18]; dosage 20 g/ha) was 90%, the pest or weed control at 5 g/ha (PHBPU [19]; dosage 5 g/ha) was 80% and the pest or weed control at 20 g/ha (PHBPU [19]; dosage 20 g/ha) was 90%. For the same compound, the pest or weed control at 5 g/ha (SETVI [20]; dosage 5 g/ha) was 80%, the pest or weed control at 20 g/ha (SETVI [20]; dosage 20 g/ha) was 100% and the pest or weed control at 5 g/ha (VERPE [21]; 5 g/ha) was 90%. It also gave a pest or weed control at 20 g/ha (VERPE [21]; 20 g/ha) of 90% and a pest or weed control at 20 g/ha (DIGSA [22]) of 90%.
